Values quoted from earlier work in US20060106003A1, “Combination of a macrolide t-cell immunomodulator and a calciferol for the treatment of skin diseases or of inflammatory bowel disease” (priority 2003, published 2006).

Tested on: allogeneic kidney transplantation
Conditions: rat, oral administration; suppression of systemic immune response

C=CC[C@@H]1/C=C(\C)C[C@H](C)C[C@H](OC)[C@H]2O[C@@](O)(C(=O)C(=O)N3CCCC[C@H]3C(=O)O[C@H](/C(C)=C/[C@@H]3CC[C@@H](O)[C@H](OC)C3)[C@H](C)[C@@H](O)CC1=O)[C@H](C)C[C@@H]2OC [tacrolimus]
minimum effective dose (MED): 14 mg/kg
